Assay results from ChEMBL document CHEMBL3885881, “DrugMatrix”.

Species: Rattus norvegicus
Assay: DrugMatrix - Regimen: Daily Repeat
Type: toxicity, organism-based, Sprague-Dawley
Design: regimen Daily Repeat, gender Male, age 6-8 weeks
Conditions: in vivo, po, route oral GAVAGE, vehicle 100 % WATER; for ABSOLUTE BASOPHIL / ABSOLUTE EOSINOPHIL / ABSOLUTE LYMPHOCYTE / ABSOLUTE MONOCYTE / ABSOLUTE SEGMENTED NEUTROPHIL / BASOPHIL / EOSINOPHIL / ERYTHROCYTE COUNT / HEMATOCRIT / HEMOGLOBIN / LEUKOCYTE COUNT / LYMPHOCYTE / MEAN CORPUSCULAR HEMOGLOBIN / MEAN CORPUSCULAR HEMOGLOBIN CONCENTRATION / MEAN CORPUSCULAR VOLUME / MONOCYTE / NEUTROPHIL / NUCLEATED RED BLOOD CELLS / PLATELET COUNT: tissue Blood; for ALANINE AMINOTRANSFERASE / ALBUMIN / ALKALINE PHOSPHATASE / ASPARTATE AMINOTRANSFERASE / BLOOD UREA NITROGEN / CARBON DIOXIDE / CHLORIDE / CHOLESTEROL / CREATINE PHOSPHOKINASE / CREATININE / GLUCOSE / LACTATE DEHYDROGENASE / LIPASE / PHOSPHORUS / POTASSIUM / SODIUM / TOTAL BILIRUBIN / TOTAL PROTEIN / URIC ACID: tissue Plasma
[1] = 0 mg/kg, 72 h, dose level Control, time 3 day
[2] = 0 mg/kg, 120 h, dose level Control, time 5 day
[3] = 15 mg/kg, 72 h, dose level Low, time 3 day
[4] = 15 mg/kg, 120 h, dose level Low, time 5 day

## COC(=O)C1=C(C)NC(C)=C(C(=O)OCC(C)C)C1c1ccccc1[N+](=O)[O-] (configuration not stated) [NISOLDIPINE]
[1]
  ABSOLUTE BASOPHIL: 0 CELLS/uL
  ABSOLUTE EOSINOPHIL: 0 CELLS/uL
  ABSOLUTE LYMPHOCYTE: 7802.17 CELLS/uL
  ABSOLUTE MONOCYTE: 13.5 CELLS/uL
  ABSOLUTE SEGMENTED NEUTROPHIL: 617.67 CELLS/uL
  BASOPHIL: 0%
  EOSINOPHIL: 0%
  ERYTHROCYTE COUNT: 5.35 x10E6/uL
  HEMATOCRIT: 33.02%
  HEMOGLOBIN: 12.88 G/DL
  LEUKOCYTE COUNT: 8.43 x10E3/uL
  LYMPHOCYTE: 92.67%
  MEAN CORPUSCULAR HEMOGLOBIN: 24.12 pg
  MEAN CORPUSCULAR HEMOGLOBIN CONCENTRATION: 39.03 G/DL
  MEAN CORPUSCULAR VOLUME: 61.8 fL
  MONOCYTE: 0.17%
  NEUTROPHIL: 7.17%
  NUCLEATED RED BLOOD CELLS: 0 /100WBC
  PLATELET COUNT: 1124.83 x10E3/uL
  ALANINE AMINOTRANSFERASE: 54.17 u/L
  ALBUMIN: 4.07 G/DL
  ALKALINE PHOSPHATASE: 383.83 u/L
  ASPARTATE AMINOTRANSFERASE: 82.17 u/L
  BLOOD UREA NITROGEN: 13.67 mg/dL
  CARBON DIOXIDE: 31 mmol/L
  CHLORIDE: 100.83 MEQ/L
  CHOLESTEROL: 65.17 mg/dL
  CREATINE PHOSPHOKINASE: 228.33 u/L
  CREATININE: 0.12 mg/dL
  GLUCOSE: 148 mg/dL
  LACTATE DEHYDROGENASE: 97.83 u/L
  LIPASE: 9.17 u/L
  PHOSPHORUS: 9.75 mg/dL
  POTASSIUM: 5.85 MEQ/L
  SODIUM: 147.02 MEQ/L
  TOTAL BILIRUBIN: 0.18 mg/dL
  TOTAL PROTEIN: 6.1 G/DL
  URIC ACID: 0.5 mg/dL
[2]
  ABSOLUTE BASOPHIL: 0 CELLS/uL
  ABSOLUTE EOSINOPHIL: 0 CELLS/uL
  ABSOLUTE LYMPHOCYTE: 10538 CELLS/uL
  ABSOLUTE MONOCYTE: 15.83 CELLS/uL
  ABSOLUTE SEGMENTED NEUTROPHIL: 762.83 CELLS/uL
  BASOPHIL: 0%
  EOSINOPHIL: 0%
  ERYTHROCYTE COUNT: 5.49 x10E6/uL
  HEMATOCRIT: 34.63%
  HEMOGLOBIN: 13.72 G/DL
  LEUKOCYTE COUNT: 11.32 x10E3/uL
  LYMPHOCYTE: 92.67%
  MEAN CORPUSCULAR HEMOGLOBIN: 24.97 pg
  MEAN CORPUSCULAR HEMOGLOBIN CONCENTRATION: 39.57 G/DL
  MEAN CORPUSCULAR VOLUME: 63.05 fL
  MONOCYTE: 0.17%
  NEUTROPHIL: 7.17%
  NUCLEATED RED BLOOD CELLS: 0.17 /100WBC
  PLATELET COUNT: 802 x10E3/uL
  ALANINE AMINOTRANSFERASE: 50.5 u/L
  ALBUMIN: 4.07 G/DL
  ALKALINE PHOSPHATASE: 336.83 u/L
  ASPARTATE AMINOTRANSFERASE: 81 u/L
  BLOOD UREA NITROGEN: 14.17 mg/dL
  CARBON DIOXIDE: 32 mmol/L
  CHLORIDE: 98.33 MEQ/L
  CHOLESTEROL: 69.17 mg/dL
  CREATINE PHOSPHOKINASE: 253.33 u/L
  CREATININE: 0.13 mg/dL
  GLUCOSE: 153.67 mg/dL
  LACTATE DEHYDROGENASE: 157 u/L
  LIPASE: 9 u/L
  PHOSPHORUS: 10.78 mg/dL
  POTASSIUM: 6.11 MEQ/L
  SODIUM: 144.57 MEQ/L
  TOTAL BILIRUBIN: 0.15 mg/dL
  TOTAL PROTEIN: 6.05 G/DL
  URIC ACID: 0.73 mg/dL
[3]
  ABSOLUTE BASOPHIL: 0 CELLS/uL
  ABSOLUTE EOSINOPHIL: 0 CELLS/uL
  ABSOLUTE LYMPHOCYTE: 6241.33 CELLS/uL
  ABSOLUTE MONOCYTE: 67 CELLS/uL
  ABSOLUTE SEGMENTED NEUTROPHIL: 425 CELLS/uL
  BASOPHIL: 0%
  EOSINOPHIL: 0%
  ERYTHROCYTE COUNT: 5.19 x10E6/uL
  HEMATOCRIT: 32.73%
  HEMOGLOBIN: 12.7 G/DL
  LEUKOCYTE COUNT: 6.73 x10E3/uL
  LYMPHOCYTE: 92.67%
  MEAN CORPUSCULAR HEMOGLOBIN: 24.5 pg
  MEAN CORPUSCULAR HEMOGLOBIN CONCENTRATION: 38.83 G/DL
  MEAN CORPUSCULAR VOLUME: 63.1 fL
  MONOCYTE: 1%
  NEUTROPHIL: 6.33%
  NUCLEATED RED BLOOD CELLS: 0 /100WBC
  PLATELET COUNT: 1002.33 x10E3/uL
  ALANINE AMINOTRANSFERASE: 56 u/L
  ALBUMIN: 4.03 G/DL
  ALKALINE PHOSPHATASE: 297.33 u/L
  ASPARTATE AMINOTRANSFERASE: 80.67 u/L
  BLOOD UREA NITROGEN: 11.67 mg/dL
  CARBON DIOXIDE: 30.67 mmol/L
  CHLORIDE: 100 MEQ/L
  CHOLESTEROL: 89.67 mg/dL
  CREATINE PHOSPHOKINASE: 318.67 u/L
  CREATININE: 0.11 mg/dL
  GLUCOSE: 147.67 mg/dL
  LACTATE DEHYDROGENASE: 95.33 u/L
  LIPASE: 13 u/L
  PHOSPHORUS: 9.1 mg/dL
  POTASSIUM: 5.7 MEQ/L
  SODIUM: 145.35 MEQ/L
  TOTAL BILIRUBIN: 0.1 mg/dL
  TOTAL PROTEIN: 5.77 G/DL
  URIC ACID: 0.47 mg/dL
[4]
  ABSOLUTE BASOPHIL: 0 CELLS/uL
  ABSOLUTE EOSINOPHIL: 0 CELLS/uL
  ABSOLUTE LYMPHOCYTE: 9912 CELLS/uL
  ABSOLUTE MONOCYTE: 68 CELLS/uL
  ABSOLUTE SEGMENTED NEUTROPHIL: 453.33 CELLS/uL
  BASOPHIL: 0%
  EOSINOPHIL: 0%
  ERYTHROCYTE COUNT: 5.6 x10E6/uL
  HEMATOCRIT: 34.7%
  HEMOGLOBIN: 13.63 G/DL
  LEUKOCYTE COUNT: 10.43 x10E3/uL
  LYMPHOCYTE: 95.33%
  MEAN CORPUSCULAR HEMOGLOBIN: 24.43 pg
  MEAN CORPUSCULAR HEMOGLOBIN CONCENTRATION: 39.3 G/DL
  MEAN CORPUSCULAR VOLUME: 62.07 fL
  MONOCYTE: 0.67%
  NEUTROPHIL: 4%
  NUCLEATED RED BLOOD CELLS: 0 /100WBC
  PLATELET COUNT: 1086 x10E3/uL
  ALANINE AMINOTRANSFERASE: 51 u/L
  ALBUMIN: 4.13 G/DL
  ALKALINE PHOSPHATASE: 346 u/L
  ASPARTATE AMINOTRANSFERASE: 74 u/L
  BLOOD UREA NITROGEN: 13.67 mg/dL
  CARBON DIOXIDE: 36.67 mmol/L
  CHLORIDE: 98.67 MEQ/L
  CHOLESTEROL: 67.33 mg/dL
  CREATINE PHOSPHOKINASE: 223.67 u/L
  CREATININE: 0.13 mg/dL
  GLUCOSE: 139.67 mg/dL
  LACTATE DEHYDROGENASE: 96.33 u/L
  LIPASE: 9 u/L
  PHOSPHORUS: 9.5 mg/dL
  POTASSIUM: 6.07 MEQ/L
  SODIUM: 144.53 MEQ/L
  TOTAL BILIRUBIN: 0.17 mg/dL
  TOTAL PROTEIN: 6.17 G/DL
  URIC ACID: 0.67 mg/dL
